Data set [1] deals with human ventricular trabeculae. Also on record: method as in Page et al., 2016. Particulars: 0.1 uM; ref Page et al., 2016; cited from earlier work.
The subject of data set [2] is human ventricular trabeculae. The data set is described as follows: Action potential recording and pro-arrhythmic score analysis in human ventricular trabeculae (hVT).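 Further: sharp microelectrode action potential recordings at 37°C in Tyrode-perfused trabeculae, 4 cumulative concentrations each applied 31 min, values averaged over last 30 APs, vehicle 0.1% DMSO as control.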
Setting [3] is: 1Hz, c1-c4: 1.5-, 5-, 15-, 150-FOLD free ETPC (0.002µM).
The mark [4] stands for this setting: 2Hz, c1-c4: 1.5-, 5-, 15-, 150-FOLD free ETPC (0.002µM).
Where [5] appears, read: average raw data, 1Hz, c2-c5: 1.5-, 5-, 15-, 150-FOLD free ETPC (0.002µM).
Where [6] appears, read: average raw data, 2Hz, c2-c5: 1.5-, 5-, 15-, 150-FOLD free ETPC (0.002µM).

This is an account of results in paper PMC5760531, “Action Potential Recording and Pro-arrhythmia Risk Analysis in Human Ventricular Trabeculae” (Frontiers in Physiology, 2018).

Structures are written as SMILES. “And” between values parts separate entries of the source, which are not always exact repeats. Equal values may be shown once.

For `CN(CCOc1ccc(NS(C)(=O)=O)cc1)CCc1ccc(NS(C)(=O)=O)cc1` [DOFETILIDE, Dofetilide], the APD90 prolongation in data set [1] is recorded as ~ 100%. Moreover, the EAD result in data set [2] (0.003, 0.01, 0.03, and 0.3 μM, total of 4 trabeculae) is listed as “without any EAD”. Besides, in data set [2] (setting [3]), the “Beat Escape incidence” value is reported as 0%, the EADs incidence amounted to 0% and the “Refractoriness Escape incidence” value was 0%. Moreover, in data set [2] (setting [4]), the EADs incidence is listed as 0% and the “Refractoriness Escape incidence” value stood at 0%. For the same compound, in data set [2] (setting [5]), the AMAX was 106 mV and 107 mV; the APD90 is 274 ms and 303 ms and 385 ms and 510 ms; the “Beat Escape” value was 0; the EADs was determined as 0. For the same compound, in data set [2] (setting [5]), the ERP was 0.43 and 0.47 and 0.52 and 0.59; the “Refractoriness Escape” value was 0. Besides, in data set [2] (setting [6]), the AMAX is 102 mV and 100 mV and 101 mV; the APD90 was 216 ms and 251 ms and 296 ms and 411 ms; the EADs was found to be 0; the ERP is 0.44 and 0.49 and 0.52 and 0.56. Moreover, the “Refractoriness Escape” value in data set [2] (setting [6]) was found to be 0.
